Measurements reported in ChEMBL document CHEMBL5500341, “Discovery of pyrido[3,2-d]pyrimidin-6(5H)-one derivatives as checkpoint kinase 1 (CHK1) inhibitors with potent antitumor efficacy” (Eur J Med Chem, 2024).
Active and inactive are the calls of the source. The calls are words filed in the database; no cut-off is given here.

How the values were obtained:
MV4-11 = test: Antiproliferative activity against human MV4-11 cells assessed as inhibition of cell proliferation incubated for 72 hrs by CCK-8 assay; type: functional, cell-based; conditions: MV4-11, 72 h
HT-29 [1] = test: cells; conditions: Homo sapiens, HT-29, 72 h
Description: Antiproliferative activity against human HT-29 cells assessed as inhibition of cell proliferation incubated for 72 hrs by CCK-8 assay

[2] = Metabolic stability in human microsome assessed as intrinsic clearance preincubated with compound for 10 mins followed by NADPH addition and measured up to 60 min by LC-MS/MS analysis; type: ADME; conditions: microsomes, time < 70 min, read-out: CLH
[3] = Metabolic stability in human liver microsome assessed as intrinsic clearance preincubated with compound for 10 mins followed by NADPH addition and measured up to 60 min by LC-MS/MS analysis; type: ADME; conditions: liver microsomes, time < 70 min, read-out: CLH
[4] = Metabolic stability in human liver microsome assessed as half life preincubated with compound for 10 mins followed by NADPH addition and measured up to 60 min by LC-MS/MS analysis; type: ADME; conditions: liver microsomes, time < 70 min
HT-29 [5] = test: Synergistic antiproliferative activity against human HT-29 cells assessed as inhibition of cell proliferation incubated for 72 hrs in presence of 50 nM 5-((4-((morpholin-2-ylmethyl)amino)-5-(trifluoromethyl)pyridin-2-yl)amino)pyrazine-2-carbonitrile by CCK-8 assay; type: functional, cell-based; conditions: HT-29, 72 h
HT-29 [6] = test: Antitumor activity against human HT-29 cells xenografted in female BALB/c mouse assessed as tumor growth inhibition at 30 mg/kg, iv administered once daily for 21 days and measured after 3 days by vernier calipers analysis; conditions: HT-29, 576 h, read-out: TGI
[7] = biological target: T1, Serine/threonine-protein kinase Chk1 (Homo sapiens) (UniProt O14757); test: Inhibition of CHK1 in human MV4-11 cells assessed as decrease in S296 phosphorylation at 11.11 nM measured for 24 hrs by Western blot analysis; type: cell-based
T1 sequence (whole entry): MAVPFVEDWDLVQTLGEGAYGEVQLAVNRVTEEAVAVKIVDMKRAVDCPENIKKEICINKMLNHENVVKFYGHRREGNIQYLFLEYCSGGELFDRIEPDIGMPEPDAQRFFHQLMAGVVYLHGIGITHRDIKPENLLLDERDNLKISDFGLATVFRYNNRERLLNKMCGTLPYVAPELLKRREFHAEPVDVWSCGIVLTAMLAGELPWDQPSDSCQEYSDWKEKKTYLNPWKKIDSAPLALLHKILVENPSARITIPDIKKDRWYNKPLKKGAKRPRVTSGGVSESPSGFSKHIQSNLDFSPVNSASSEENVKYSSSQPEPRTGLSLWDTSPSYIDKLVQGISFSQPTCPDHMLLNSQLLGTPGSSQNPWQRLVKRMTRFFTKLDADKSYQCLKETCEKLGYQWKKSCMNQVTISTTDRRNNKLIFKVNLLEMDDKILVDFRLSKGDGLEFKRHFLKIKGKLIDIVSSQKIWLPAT

HCT-116 = test: cells; conditions: Homo sapiens, HCT-116, 72 h
Description: Antiproliferative activity against human HCT-116 cells assessed as inhibition of cell proliferation incubated for 72 hrs by CCK-8 assay

HL-60 = test: cells; conditions: Homo sapiens, HL-60, 72 h
Description: Antiproliferative activity against human HL-60 cells assessed as inhibition of cell proliferation incubated for 72 hrs by CCK-8 assay

OVCAR-3 = test: cells; conditions: Homo sapiens, OVCAR-3, 72 h
Description: Antiproliferative activity against human OVCAR-3 cells assessed as inhibition of cell proliferation incubated for 72 hrs by CCK-8 assay

A2780 = test: cells; conditions: Homo sapiens, A2780, 72 h
Description: Antiproliferative activity against human A2780 cells assessed as inhibition of cell proliferation incubated for 72 hrs by CCK-8 assay

A549 = test: cells; conditions: Homo sapiens, A549, 72 h
Description: Antiproliferative activity against human A549 cells assessed as inhibition of cell proliferation incubated for 72 hrs by CCK-8 assay

MDA-MB-468 = test: cells; conditions: Homo sapiens, MDA-MB-468, 72 h
Description: Antiproliferative activity against human MDA-MB-468 cells assessed as inhibition of cell proliferation incubated for 72 hrs by CCK-8 assay

HT-29 [8] = test: Synergistic antiproliferative activity against human HT-29 cells assessed as inhibition of cell proliferation incubated for 72 hrs in presence of 50 nM gemcitabine by CCK-8 assay; type: functional, cell-based; conditions: HT-29, 72 h

With `N#Cc1ncc(Nc2ncc3c(ccc(=O)n3CC(F)F)n2)cc1NC1CCNCC1` as the compound, how does the IC50 (MV4-11) read?
Its IC50 is > 10 µM.

Which IC50 (MV4-11) does the source give for `CN(C)CCNc1cc(Nc2ncc3c(ccc(=O)n3CC(F)F)n2)cnc1C#N` here?
The IC50 was 3.81 µM.

Which IC50 (MV4-11) does the source give for `N#Cc1ncc(Nc2ncc3c(ccc(=O)n3CC(N)=O)n2)cc1N[C@H]1CC[C@@H](N)CC1` here?
The IC50 was 8.64 µM.

Which IC50 (MV4-11) does the source give for `CN1CCC(Oc2cc(Nc3ncc4c(ccc(=O)n4CC(F)F)n3)cnc2C#N)CC1` here?
Its IC50 is > 10 µM.

For `Cn1c(=O)ccc2nc(Nc3cnc(C#N)c(N[C@H]4CC[C@@H](N)CC4)c3)ncc21`, which IC50 (MV4-11) is on record?
Its IC50 is 0.883 µM.

With `N#Cc1ncc(Nc2ncc3c(ccc(=O)n3CC(F)(F)F)n2)cc1N[C@H]1CCNC1` as the compound, how does the IC50 (MV4-11) read?
Its IC50 is > 10 µM.

With `N#Cc1ncc(Nc2ncc3c(ccc(=O)n3CC(F)F)n2)cc1NCCN` as the compound, how does the IC50 (MV4-11) read?
Its IC50 is > 10 µM.

For `N#Cc1ncc(Nc2ncc3c(ccc(=O)n3CC(F)F)n2)cc1O[C@H]1CCCNC1`, which IC50 (MV4-11) is on record?
Its IC50 is > 10 µM.

With `CCn1c(=O)ccc2nc(Nc3cnc(C#N)c(N[C@H]4CC[C@@H](N)CC4)c3)ncc21` as the compound, how does the IC50 (MV4-11) read?
The IC50 was 2.23 µM.

What does the source list for `N#Cc1ncc(Nc2ncc3[nH]c(=O)ccc3n2)cc1N[C@H]1CC[C@H](N)CC1`?
IC50 (MV4-11): 0.0394 µM; IC50 (HT-29 [1]): > 10 µM

Which IC50 (MV4-11) does the source give for `N#Cc1ncc(Nc2ncc3c(ccc(=O)n3CC(F)F)n2)cc1OCC1CCNCC1` here?
Its IC50 is > 10 µM.

With `N#Cc1ncc(Nc2ncc3[nH]c(=O)ccc3n2)cc1NCCN` as the compound, how does the IC50 (HT-29 [1]) read?
The IC50 was > 10 µM.

For `CC(C)n1c(=O)ccc2nc(Nc3cnc(C#N)c(N[C@H]4CC[C@@H](N)CC4)c3)ncc21`, which IC50 (MV4-11) is on record?
Its IC50 is 2.19 µM.

With `N#Cc1ncc(Nc2ncc3c(ccc(=O)n3CC(F)F)n2)cc1NCC1CCCCN1` (configuration not stated) as the compound, how does the IC50 (MV4-11) read?
Its IC50 is 3.8 µM.

For `N#Cc1ncc(Nc2ncc3[nH]c(=O)ccc3n2)cc1N[C@H]1CC[C@@H](N)CC1`, which IC50 (MV4-11) is on record?
Its IC50 is 0.0565 µM.

And the IC50 (HT-29 [1])?
The IC50 was > 10 µM.

Which results are given for `N#Cc1ncc(Nc2ncc3c(n2)CCC(=O)N3)cc1NC1CCNC1` (single isomer, unassigned)?
IC50 (MV4-11): > 10 µM; IC50 (HT-29 [1]): > 10 µM

For `N#Cc1ncc(Nc2ncc3c(ccc(=O)n3CC(F)F)n2)cc1N[C@H]1CC[C@@H](N)CC1`, which IC50 (MV4-11) is on record?
Its IC50 is 2.47 µM.

For `N#Cc1ncc(Nc2ncc3c(ccc(=O)n3CC(F)(F)F)n2)cc1N[C@H]1CC[C@@H](N)CC1`, which IC50 (MV4-11) is on record?
Its IC50 is 2.11 µM.

For `N#Cc1ncc(Nc2ncc3[nH]c(=O)ccc3n2)cc1N1CCOCC1`, which IC50 (HT-29 [1]) is on record?
Its IC50 is > 10 µM.

What does the source list for `O=C(O)Cc1ccccc1Nc1c(Cl)cccc1Cl` [DICLOFENAC]?
microsomal CLint [2]: 269 µL/min/mg; CLint scaled [3]: 242 mL/min/kg; half-life [4]: 5.14 min

With `N#Cc1ncc(Nc2ncc3c(ccc(=O)n3CC(F)F)n2)cc1OC[C@H]1CCCNC1` as the compound, how does the IC50 (MV4-11) read?
Its IC50 is > 10 µM.

Which IC50 (MV4-11) does the source give for `N#Cc1ncc(Nc2ncc3c(ccc(=O)n3CC(F)F)n2)cc1O[C@@H]1CCCNC1` here?
The IC50 was 4.88 µM.

Which IC50 (MV4-11) does the source give for `N#Cc1ncc(Nc2ncc3c(ccc(=O)n3CC(F)F)n2)cc1N[C@@H]1CCCNC1` here?
Its IC50 is 3.63 µM.

With `N#Cc1ncc(Nc2ncc3c(ccc(=O)n3CC(F)F)n2)cc1N[C@H]1CC[C@H](N)CC1` as the compound, how does the IC50 (MV4-11) read?
The IC50 was 2.67 µM.

Which results are given for `CC(C)(C)OC(=O)N1CCC(Nc2cc(Nc3ncc4c(n3)CCC(=O)N4)cnc2C#N)C1` (single isomer, unassigned)?
IC50 (MV4-11): > 10 µM; IC50 (HT-29 [1]): > 10 µM

For `N#Cc1ncc(Nc2ncc3[nH]c(=O)ccc3n2)cc1N[C@H]1CCCNC1`, which IC50 (MV4-11) is on record?
The IC50 was 0.0195 µM.

And the IC50 (HT-29 [1])?
The IC50 was > 10 µM.

With `N#Cc1ncc(Nc2ncc3c(ccc(=O)n3CC(F)F)n2)cc1OC1CCNCC1` as the compound, how does the IC50 (MV4-11) read?
The IC50 was > 10 µM.

Which IC50 (MV4-11) does the source give for `N#Cc1ncc(Nc2ncc3[nH]c(=O)ccc3n2)cc1NC1CCNC1` (single isomer, unassigned) here?
Its IC50 is > 10 µM.

And the IC50 (HT-29 [1])?
Its IC50 is > 10 µM.

Which IC50 (MV4-11) does the source give for `N#Cc1ncc(Nc2ncc3c(ccc(=O)n3CC(=O)O)n2)cc1N[C@H]1CC[C@@H](N)CC1` here?
Its IC50 is > 10 µM.

What does the source list for `Nc1ccn([C@@H]2O[C@H](CO)[C@@H](O)C2(F)F)c(=O)n1` [GEMCITABINE]?
IC50 (HT-29 [5]): 0.177 µM; inhibition in vivo at 30 mg/kg (HT-29 [6]): 33.5%; inhibition [7]: Active

What does the source list for `N#Cc1cnc(Nc2cc(NC[C@H]3CNCCO3)c(C(F)(F)F)cn2)cn1` [SRA-737]?
IC50 (HCT-116): > 10 µM; IC50 (HL-60): > 10 µM; IC50 (OVCAR-3): > 10 µM; IC50 (A2780): > 10 µM; IC50 (A549): > 10 µM; IC50 (MDA-MB-468): > 10 µM; IC50 (HT-29 [8]): 0.177 µM; IC50 (HT-29 [1]): > 10 µM

For `N#Cc1ncc(Nc2ncc3c(ccc(=O)n3CC(F)F)n2)cc1O[C@@H]1CCNC1`, which IC50 (MV4-11) is on record?
The IC50 was > 10 µM.

For `N#Cc1ncc(Nc2ncc3c(ccc(=O)n3CC(F)F)n2)cc1NC[C@H]1CCNC1`, which IC50 (MV4-11) is on record?
The IC50 was > 10 µM.

Which IC50 (HT-29 [1]) does the source give for `N#Cc1ncc(Nc2ncc3[nH]c(=O)ccc3n2)cc1NC[C@@H]1CCCNC1` here?
Its IC50 is > 10 µM.

For `N#Cc1ncc(Nc2ncc3c(ccc(=O)n3CC(F)F)n2)cc1OCCCN`, which IC50 (MV4-11) is on record?
The IC50 was > 10 µM.
